From article PMC10141604, “Small-Molecule Inhibition of Androgen Receptor Dimerization as a Strategy against Prostate Cancer” (ACS Central Science, 2023)

What was measured:
AR = target: T1, AR (Homo sapiens, UniProt P10275, T878A); experiment: AR transcriptional activity assay (LNCaP-ARR2PB-eGFP cells); assay type: cell-based
T1 construct: The cells of LNCaP-ARR2PB-eGFP were; endogenous in cells; host or cells: LNCaP-ARR2PB-eGFP
T1 sequence (P10275 1-920 T878A): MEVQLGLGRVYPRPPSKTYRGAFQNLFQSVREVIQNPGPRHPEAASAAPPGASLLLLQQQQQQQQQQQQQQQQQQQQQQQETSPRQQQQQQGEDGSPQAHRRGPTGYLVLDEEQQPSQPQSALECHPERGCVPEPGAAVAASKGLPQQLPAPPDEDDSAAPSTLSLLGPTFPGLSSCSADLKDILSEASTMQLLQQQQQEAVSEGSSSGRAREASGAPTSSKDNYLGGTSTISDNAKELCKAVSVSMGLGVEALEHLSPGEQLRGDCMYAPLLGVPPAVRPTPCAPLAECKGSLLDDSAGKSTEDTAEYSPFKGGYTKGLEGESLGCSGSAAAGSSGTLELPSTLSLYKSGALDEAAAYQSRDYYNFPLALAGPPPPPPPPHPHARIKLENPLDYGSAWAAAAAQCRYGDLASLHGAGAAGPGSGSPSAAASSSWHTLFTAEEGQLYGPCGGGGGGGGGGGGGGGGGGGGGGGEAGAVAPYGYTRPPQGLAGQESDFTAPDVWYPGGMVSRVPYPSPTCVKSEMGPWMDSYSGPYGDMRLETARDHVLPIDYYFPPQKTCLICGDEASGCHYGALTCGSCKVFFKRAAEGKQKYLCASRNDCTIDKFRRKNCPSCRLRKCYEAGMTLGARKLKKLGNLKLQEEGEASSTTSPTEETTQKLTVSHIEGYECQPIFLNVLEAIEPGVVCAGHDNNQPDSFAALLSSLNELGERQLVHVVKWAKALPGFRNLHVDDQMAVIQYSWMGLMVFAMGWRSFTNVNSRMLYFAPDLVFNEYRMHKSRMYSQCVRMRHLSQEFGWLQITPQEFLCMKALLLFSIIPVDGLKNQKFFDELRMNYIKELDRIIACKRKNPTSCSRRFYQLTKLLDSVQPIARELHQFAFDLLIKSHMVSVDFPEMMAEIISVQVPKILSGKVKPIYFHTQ
Method: University, Hangzhou, China), respectively. […]
AR Transcriptional Activity Assay
The AR transcriptional activities were determined using the constructed LNCaP-ARR2PB-eGFP cell as previously reported.11, 12 The cells of LNCaP-ARR2PB-eGFP were […]
by seeding into a 96 -well plate (3.5× 10^4 cells/well) for 1 day incubation at 37 °C. Then, the cells were treated with 5 nM DHT and various concentrations of compounds (10 μM […]
the fluorescence intensities were determined using a Synergy H1 microplate reader

[1] = system: human gastric epithelial cell (GES-1); experiment: MTT cell viability assay, GES-1; assay type: cell-based; settings: 72 h
Method: (§1) 3-(4,5-dimethythiazol-2-yl)-2,5-diphenyl-2-H-tetrazolium bromide (MTT) colorimetric assay was employed to investigate cell viability. Cells were seeded into 96-well plates with 2-5× 10^3 cells per well (5× 10^3 cells/well for LNCaP, 22RV1, NIH-3T3, GES-1, Chang, […]
(§2) NCI-H1299, U2OS, U87) for 1 day incubation at 37 °C. Then, the cells were treated with various concentrations of compounds (22.86 nM - 50 μM) and incubated for 72 h. Then, 10 μl MTT (5 mg/ml) was added into each well and incubated for 4 h. Afterwards, 100 μl of triplex 10% SDS-0.1% HCl-phosophate-buffered saline (PBS) solutions was added into each well and incubated for overnight. The absorbance at 570 nm was measured (Eon, Bioteck, Winooski, VT). […]

Solubility (statement) = assay type: physicochemical
Du145 = experiment: MTT cell viability assay, Du145; assay type: cell-based; settings: 72 h
Method: as §1, §2

[2] = system: human liver cells (Chang); experiment: MTT cell viability assay, Chang; assay type: cell-based; settings: 72 h
Method: as §1, §2

NIH-3T3 = experiment: MTT cell viability assay, NIH-3T3; assay type: cell-based, murine; settings: 72 h
Method: as §1, §2

[3] = system: U2OS, MCF-7, HepG2, HL60, H1299, A549, SW480, U87, Hela cell lines; experiment: MTT cell viability assay, various human cancer cell lines; assay type: cell-based; settings: concentration as high as 50 μM; Enz except U2OS, M17-B15 except A549
Method: as §1, §2

22RV1 = experiment: MTT cell viability assay, 22RV1; assay type: cell-based; settings: 72 h
Method: as §1, §2

Compound	IC50 (AR; LNCaP-ARR2PB-eGFP cells, 5 nM DHT, 3 days) [nM]	improvement in AR transcriptional inhibition compared with the original hit M17 (AR; ratio of IC50 values) [fold]	cytotoxicity against GES-1 [1]	solubility (Solubility (statement))	inhibition on the cell viability of Du145 (Du145)	cytotoxicity against Chang [2]	cytotoxicity against NIH-3T3 (NIH-3T3)	cell viability inhibition of various human cancer cell lines [3]	inhibition on the cell viability of 22RV1 (22RV1)
CC(=O)Cc1nsc(NC(=O)c2cc(-c3cccc(C(F)(F)F)c3)oc2C)n1 [Compound M17-B15]	30 ± 10	> 31	negligible cytotoxicity	poor solubility	does not show obvious inhibition	negligible cytotoxicity	negligible cytotoxicity	mild to moderate inhibitory effects	does not show obvious inhibition
CNC(=O)c1ccc(N2C(=S)N(c3ccc(C#N)c(C(F)(F)F)c3)C(=O)C2(C)C)cc1F [Enz, enzalutamide, reference compound]	–	–	negligible cytotoxicity	–	–	negligible cytotoxicity	negligible cytotoxicity	mild to moderate inhibitory effects	–
